Laboratory results published in patent publication US20210275493A1, “IMMUNO-ONCOLOGY THERAPY USING ISOFLAVONE COMPOUNDS” (NOXOPHARM LIMITED, priority 2019, published 2021).
Entries after “also recorded” stand apart in the source; their conditions may differ.

What was measured:
[1] = system: MCF-7 mammary carcinoma spheroids with PBMCs; experiment: MCF-7 spheroid PBMC co-culture: microscopy and FACS; type: cell-based, human
Procedure: (§1) Spheroids were generated using the liquid overlay technique. Therefore, a 96 well cell culture plate (Greiner) was precoated with 1.5% (w/v) agarose. For this, 0.75 g of agarose was diluted in 50 ml PBS and boiled for 15 min in a pressure cooker at full pressure, followed by another 10 min at lowest pressure level. 50 μl of agarose solution was added to each well of the 96 well plate and allowed to cool down at RT (under a cell culture hood). Tumor cells were trypsinized and adjusted to a cell suspension of 25.000 cells/ml in medium (RPMI 1640, 10% FCS, 1% penicillin/streptomycin). The outer wells of the 96 well plates were filled with PBS, and the remaining wells were filled with 200 μl cell suspension. Cell aggregation was triggered by centrifugation of the plate at 500× g, 5 min, RT. Plates were then maintained for 5 days in an incubator (37° C., humidified atmosphere). Medium was changed every two days by careful aspiration. Spheroid size was acquired with a Carl Zeiss Axiovert microscope and diameters were determined using AxioVision 40 software.
(§2) PBMCs were isolated from buffy coats (DRK-Blutspendedients Baden-Würtemberg-Hessen, Institut für Transfusionsmedizin and Immunhämatologie, Frankfurt am Main, Germany) using Bicoll-Hypaque gradients. Two 50 ml Leukosep® tubes (Greiner) per buffy coat were filled with 15 ml lymphocyte separation medium (Sigma Aldrich) and centrifuged at 1000×g, 1 min, RT, to place the solution below the membrane. Afterwards 30 ml human blood from buffy coats was added, tubes were filled up to 50 ml with PBS/2 mM EDTA solution, and centrifuged at 500×g, 45 min, RT without break. After density gradient centrifugation, the intermediate white layer composed of mononuclear cells was transferred into a fresh sterile 50 ml tube and washed twice with PBS/2 mM EDTA. After RBC lysis (RBC lysis buffer: 135 mM NH4Cl, 10 mM NaHCO3, 0.1 mM EDTA; for 4 min at RT, stop with PBS) cells were diluted in RPMI 1640 medium (+10% FCS, 1% penicillin/streptomycin) at 2×10^6 cells/ml.
(§3) PBMCs were activated with 25 μl/ml CD3/CD28 T cell activator cocktail (StemCell Technologies), and 50.000 pre-activated PBMCs/well were added to spheroids. Afterwards, co-cultures were stimulated with 1 μM or 10 μM idronoxil or DMSO for 3 days. After three days, samples were either harvested for downstream analysis or treated again with 1 μM or 10 μM idronoxil or DMSO±10 μg/ml anti-PD-1 antibody (BioXCell) or the isotype control for another 3 days. Spheroid size was acquired with a Carl Zeiss Axiovert microscope and diameters were determined using AxioVision 40 software. Spheroids were harvested by transferring 5 spheroids of each group into FACS tubes (BD Biosciences), followed by centrifugation (500× g, 5 min, 4° C.). After removing the supernatant, 100 μl Accutase (Sigma Aldrich) was added to the spheroids, followed by 15 min incubation at 37° C. and generation of single cell suspensions by shearing the cell suspension repeatedly trough pipetting using 100 μl filter pipette tips. After centrifugation (500×g, 5 min, 4° C.) and removal of supernatant, cells were blocked with 80 μl of 0.5% BSA/PBS and 2 μl FcR-blocking reagent (Miltenyi Biotec) for 15 min on ice. Thereafter, cells were stained with an antibody mix consisting of anti-human CD4 PE-CF594, anti-human CD8 APC-H7, anti-human TCRab FITC, anti-human CD33 BV510, anti-human CD45 AF700, anti-human CD279 APC, and anti-human CD274 BV421 (each from BD Biosciences) antibodies for 20 min on nice in the dark. After washing with 500 μl FACS Flow (BD Biosciences), cells were resuspended in 300 μl FACS Flow, 20 μL absolute count standard (Bangs Laboratory) were added to each sample, and samples were acquired using an LSR II/Fortessa flow cytometer (BD Biosciences). All Antibodies were previously titrated to determine optimal concentrations. Antibody-capturing CompBeads (BD Biosciences) were used to create the multi-color panel compensation matrix. […]

[2] = system: NPC cell lines; experiment: In vitro exposure of NPC cell lines: T-cell chemokine expression; type: cell-based
[3] = system: NPC cell line spheroids cocultured with PBMCs; experiment: Coculture of NPC tumor spheroids and PBMCs: PBMC infiltration; type: cell-based
Procedure: (§4) For the generation of tumor spheroids in 3D, 200 μL/well of cell suspension in culture medium was seeded at cell densities of 20,000 cells/well. NPC (C17/NPC43+ve) cells were dispensed into Nunclon Sphera 96 wells plate (Thermo Fisher Scientific). The Nunclon Sphera surface was designed to cause minimal cell attachment with minimal extracellular matrix protein binding to the plate surfaces. Plates were incubated at 37° C. and 5% CO2 in RPMI supplemented with FBS and ROCK inhibitor.
(§5) For flow cytometry analyses, 8 wells/condition were seeded. OUT and IN compartments were isolated by first pooling the 8 cocultures wells in eppendorf tubes. Spheroids were gently resuspended and left to sediment to the bottom of the tubes. Supernatant cell suspension constituted the non-infiltrating immune cells (=OUT). These steps were repeated twice with Phosphate Buffer Saline (PBS) in order to separate the spheroids from the non-infiltrating immune cells. Spheroids were then trypsinized to obtain a single cell suspension (=IN) and further analyzed by flow cytometry.
(§6) The interactions between tumor spheroids and PBMCs through heterotypic cocultures was explored. Spheroids were generated from an NPC cell line cocultured with PBMCs obtained from healthy donors that were HLA-matched whenever possible. After coculture, lymphocyte tumor infiltration and tumor cell apoptosis were measured. The cellular compositions within infiltrated tumor spheroids by mechanically separating infiltrating cells (IN) and cells remaining in the medium (OUT) were studied. A description of the coculture experimental protocol is illustrated in FIG. 1.
An increase in PBMCs infiltration in the tumor spheroids upon treatment was detected as early as 2 hours after the beginning of the experiment, while the number of infiltrated cells remained constant in the controls (DMSO) over 72 hours of coculture. […] Moreover, the CellEvent staining was performed on the coculture to confirm the induction of apoptosis and observed that spheroid infiltration was proportional to an active apoptosis process in tumor cells. […]

[4] = system: T cells infiltrating C17/NPC43+ve spheroids; experiment: Flow cytometry of spheroid-infiltrating T cells (IN/OUT) in NPC spheroid/PBMC coculture; type: cell-based
Procedure: as §5
Differences in quantitative variables were analyzed by the Mann-Whitney U test when comparing 2 groups. A p value<0.05 was considered as statistically significant.
as §6
These findings support the use of idronoxil to induce immunomodulatory responses, and in combination with conventional chemotherapies, enhance antitumor immunity. […] Finally, additionally to the above findings the inventors detected a significant reduction in PD1^+ expression in total infiltrating memory cells compared to DMSO controls (mean 48.57±5.117 vs. mean 62.06±3.066; p=0.0086; FIG. 3). In contrast, significant up-regulation in PD1^+ expression in naïve infiltrated cells upon idronoxil treatment as compared to DMSO (mean 62.10±7.049 vs. mean 43.57±3.870; p=0.0017) was found.

[5] = Clinical examples: plasma concentration after daily dosing; type: in vivo, human; conditions: 800 mg daily dosage for a period of 7 days
Procedure: An individual presents with metastatic castration resistant prostate cancer. […] The individual has not been prior treated with an […]. The individual is given 800 mg daily dosage of idronoxil for a period of 7 days to establish a plasma concentration of 350 ng/mL of idronoxil. The individual is then administered with an anti-PD-1 antibody according to the product information. The dosage cycle is repeated twice and the individual is assessed for response to anti PD-1 therapy.
An individual presents with advanced melanoma, having been assessed at 12 weeks from first administration of an anti-CTLA-4 antibody as having stable disease and not having achieved a partial response. The individual is given 800 mg daily dosage of idronoxil for a period of 7 days to establish a plasma concentration of 350 ng/mL of idronoxil. The individual is then administered with an anti-CTLA-4 antibody according to the product information. The dosage cycle is repeated twice and the individual is assessed for response to anti-CTLA-4 therapy.

[6] = system: NPC (C17/NPC43+ve) cells, C17 spheroid; experiment: 3D tumor spheroid apoptosis imaging (CellEvent Caspase-3/7); type: cell-based
Procedure: as §4
To mimic in vivo conditions, the cytotoxicity of idronoxil on NPC cells using three-dimensional (3D) tumor cultures was examined. The effect of increasing concentrations of idronoxil was monitored on apoptosis using fluorescent probes (non-toxic CellEvent Caspase-3/7 Green and LysoTracker Deep Red) in combination with bright-field microscopy to perform persistent real-time spheroid imaging. […] When LysoTracker was added to the spheroids, the staining pattern was complementary to that of CellEvent, with the LysoTracker constantly accumulating in the outer and presumably metabolically active layers of the spheroids.

[7] = system: A549 lung adenocarcinoma spheroids with PBMCs; experiment: A549 spheroid PBMC co-culture: microscopy and FACS; type: cell-based, human
Procedure: as §1, §2, §3

## Oc1ccc(C2=Cc3ccc(O)cc3OC2)cc1 [idronoxil, 2H-1-Benzopyran-7-0,1,3-(4-hydroxyphenyl)]
[1]; 10 μM, day 3, FACS
  expression of PD1 on CD4+ T cells: reduces
  expression of PDL1 on myeloid cells: reduces
  number of myeloid cells: reduces
[1]; 10 μM, day 6
  3D spheroid size: reduced
  immune function of the cells (cluster formation): maintained
[1]; 10 μM, day 6, FACS
  number of tumor cells: reduces
[1]; day 3
  3D spheroid size: reduced
  immune activation (cluster formation): induced or maintained
[1]; day 6, especially at 10 μM, FACS
  expression of PD1 on both CD4+ and CD8+ T cells: reduces
[1]; day 6, idronoxil in general, FACS
  PDL1 expression by myeloid cells: strongly reduces
[2]
  expression of T-cell chemokines: expression of the T-cell chemokines CXCL8, 9 and 10
[3]; after the beginning of the experiment
  time at which increase in PBMCs infiltration was detected: 2 h
[3]; neutralizing antibodies added to tumor spheroid cultures
  idronoxil-induced PBMC migration upon blockade of CXCL10: significantly reduced
[3]; vs DMSO control, up to 72 hours of coculture
  influx of PBMC into the spheroids: significantly increased
[4]; CD3+ populations IN vs OUT, 72 hours
  double-positive (DP) T cells in the tumor structure: significant increase
[4]; DMSO control 43.57±3.870, p=0.0017
  PD1+ expression in naïve infiltrated cells (mean): 62.10±7.049
[4]; DMSO control 62.06±3.066, p=0.0086
  PD1+ expression in total infiltrating memory cells (mean): 48.57±5.117
[4]; compared to control
  proportions of CD45RO+ CD27+ memory cells among infiltrating DP T cells: decreased proportions
  proportions of CD45RO- CD27+ naïve cells among infiltrating DP T cells: increased proportions
[4]; compared to control, CCR7 not reduced
  CD62L expression of tumor-infiltrating DP T cells: pronounced reduction
[5]
  plasma concentration of idronoxil: 350 ng/mL
[6]; 3D vs 2D
  IC50 values, spheroid-derived cells in 3D versus 2D conditions: comparable
[6]; C17 spheroids, 3D culture, apoptosis by CellEvent Caspase-3/7, read-out: IC50 (3D CellEvent dose-response curve)
  IC50: 2100 nM
[6]; increasing concentrations of idronoxil
  intensity of C17 spheroid staining with CellEvent: proportional to idronoxil concentrations
[7]; 1 μM, day 6
  3D spheroid size: reduced
[7]; 10 μM, day 3
  3D spheroid size: reduces
  immune activation (cluster formation): induces or maintains
[7]; 10 μM, day 3, FACS
  expression of PD1 on CD8+ T cells: reduced
  expression of PDL1 on myeloid cells: reduced
[7]; 10 μM, day 6
  immune activation (cluster formation): maintains
  invasion of the cells (into agarose): reduced; also recorded: prevents
  spheroid size: reduced
[7]; 10 μM, day 6, FACS
  expression of PD1 on both CD4+ and CD8+ T cells: reduces
  expression of PDL1 on myeloid cells: reduces
  immune cell infiltrates: increased
